Data reported in PMC4464186 (EXCLI Journal, 2014).

How the values were obtained:
[1] = test system: metrazol-induced convulsion; conditions: metrazol-induced convulsion model, ref Sridhar et al., 2002, cited from earlier work
mice = assay type: in vivo; conditions: rotarod; doses up to 300 mg/kg; 0.5 and 4.0 h
Albino mice = assay type: in vivo; conditions: 100 mg/kg i.p.; with respect to control

Compound | protection ([1]; at 100 mg kg^-1) [%] | ED50 [1] [mg/kg] | neurotoxicity (motor impairment), in words (mice) | % Increased of immobility (Albino mice) [%]
Cc1ccc2c(c1)C(=Nc1ccc(Cl)cc1)C(=O)N2 [3-(4-Chlorophenylimino)-5-methyl-1,3-dihydro-indol-2-one] | 87 | 53.61 |  | 
O=c1nc2[nH]c3ccc(Cl)cc3c2n[nH]1 [5e, 8-chloro-2H-[1,2,4]triazino[5,6-b]indol-3(5H)-one] |  |  | no motor impairment effect | 54.39
O=c1nc2[nH]c3c(Br)cc(Br)cc3c2n[nH]1 [5i, 6,8-dibromo-2H-[1,2,4]triazino[5,6-b]indol-3(5H)-one] |  |  |  | 37.68
Cn1c2nc(=O)[nH]nc2c2cc(Br)cc(Br)c21 [5k, 6,8-dibromo-5-methyl-2H-[1,2,4]triazino[5,6-b]indol-3(5H)-one] |  |  |  | 45.96
NC(=O)N1c2ccccc2C=Cc2ccccc21 [Carbamazepine, reference compound] |  |  |  | 58.63
